The values that follow come from ChEMBL document CHEMBL1145124, “Identification and prediction of promiscuous aggregating inhibitors among known drugs” (J Med Chem, 2003).

The target in data set [1] is Beta-lactamase (Escherichia coli K-12) (UniProt P00811). Nature of the data set: Inhibition of beta-lactamase at 100 uM.
For data set [2], the target named is T1, Chymotrypsin-C (Homo sapiens) (UniProt Q99895).
T1 sequence (whole entry): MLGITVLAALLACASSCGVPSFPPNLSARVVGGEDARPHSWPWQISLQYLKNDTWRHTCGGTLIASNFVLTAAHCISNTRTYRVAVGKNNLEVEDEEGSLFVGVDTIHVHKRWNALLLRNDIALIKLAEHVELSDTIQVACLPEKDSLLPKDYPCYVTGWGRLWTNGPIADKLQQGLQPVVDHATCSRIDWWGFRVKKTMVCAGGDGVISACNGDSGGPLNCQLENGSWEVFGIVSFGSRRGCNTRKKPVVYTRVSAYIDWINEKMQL
Nature of the data set: Inhibition of chymotrypsin at 250 uM. Conditions: unidentified.

Data set [3] has as its target T2, Malate dehydrogenase, cytoplasmic (Homo sapiens) (UniProt P40925).
T2 sequence (whole entry): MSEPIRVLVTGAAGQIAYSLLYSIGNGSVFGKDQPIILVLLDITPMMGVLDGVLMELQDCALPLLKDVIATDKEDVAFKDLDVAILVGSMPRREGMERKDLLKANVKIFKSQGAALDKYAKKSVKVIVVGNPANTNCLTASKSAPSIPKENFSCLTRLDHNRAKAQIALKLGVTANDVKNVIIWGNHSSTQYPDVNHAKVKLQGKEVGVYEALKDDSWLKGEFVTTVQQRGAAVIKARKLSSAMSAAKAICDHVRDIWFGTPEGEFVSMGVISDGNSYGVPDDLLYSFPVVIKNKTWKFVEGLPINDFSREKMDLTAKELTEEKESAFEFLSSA
Kind of data set: Inhibition of malate dehydrogenase (MDH) at 400 uM.

Data set [4] has as its target T3, Malate dehydrogenase, mitochondrial (Sus scrofa) (UniProt P00346).
T3 sequence (whole entry): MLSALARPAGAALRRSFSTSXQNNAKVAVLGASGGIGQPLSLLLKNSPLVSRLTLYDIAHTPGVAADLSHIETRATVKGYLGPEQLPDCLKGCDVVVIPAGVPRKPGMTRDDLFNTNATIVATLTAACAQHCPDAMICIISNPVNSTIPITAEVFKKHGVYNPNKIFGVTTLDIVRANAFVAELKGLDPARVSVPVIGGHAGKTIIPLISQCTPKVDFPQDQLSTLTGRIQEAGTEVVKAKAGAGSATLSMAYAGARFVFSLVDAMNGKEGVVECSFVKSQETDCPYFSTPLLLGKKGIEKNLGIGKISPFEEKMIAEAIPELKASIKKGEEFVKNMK
Nature of the data set: Compound was tested for the inhibition of malate dehydrogenase (MDH) at 200 uM.

Data set [5] addresses T3, Malate dehydrogenase, mitochondrial (Sus scrofa). Kind of data set: Compound was tested for the inhibition of malate dehydrogenase (MDH) at 50 uM.
A further data set deals with Beta-lactamase (Escherichia coli K-12, UniProt P00811). Nature of the data set: Compound was tested for the inhibition of beta-lactamase.
Data set [6] deals with T4, Chymotrypsinogen A (Bos taurus, UniProt P00766). Nature of the data set: Fold decrease in IC50 vs chymotrypsinogen on pre-incubation; increase.
Data set [7] has as its target T4, Chymotrypsinogen A. Nature of the data set: Compound was tested for the inhibition of Chymotrypsinogen.
Data set [8] is described as follows: Mean maximal plasma concentration. It is filed as ADME, organism-based.
For data set [9], the target named is T3, Malate dehydrogenase, mitochondrial (Sus scrofa). Nature of the data set: Compound was tested for the inhibition of malate dehydrogenase (MDH) at 100 uM.

Beta-lactamase, sequence (P00811 whole entry): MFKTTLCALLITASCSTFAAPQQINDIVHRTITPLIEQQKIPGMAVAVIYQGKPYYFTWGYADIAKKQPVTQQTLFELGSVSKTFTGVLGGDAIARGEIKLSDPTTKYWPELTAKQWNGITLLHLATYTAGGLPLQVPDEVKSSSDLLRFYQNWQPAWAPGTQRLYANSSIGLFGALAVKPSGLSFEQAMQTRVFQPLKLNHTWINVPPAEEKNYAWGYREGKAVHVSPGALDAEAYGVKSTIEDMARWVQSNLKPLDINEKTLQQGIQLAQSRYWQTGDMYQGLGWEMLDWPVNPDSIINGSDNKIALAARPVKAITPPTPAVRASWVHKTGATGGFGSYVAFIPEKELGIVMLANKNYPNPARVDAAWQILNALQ
Beta-lactamase (Escherichia coli K-12), sequence (P00811 whole entry): as above

The term inhibition denotes the relative decrease from the control value, in per cent. In the case of `NCCNCCNCCNCCN`, the inhibition in [1], in [2] and in data set [3] was less than 5% throughout.

On to `Cc1ccc(C)c(OCCCC(C)(C)C(=O)O)c1`, for which the inhibition was 14% in data set [4], less than 5% in [1] and less than 5% in data set [2].

For `COc1ccccc1OCC(O)CO` (centres undefined), the inhibition in data set [1], in [2] and in data set [3] was less than 5% each time.

In the case of `CC(=O)N(O)CCCCCNC(=O)CCC(=O)N(O)CCCCCNC(=O)CCC(=O)N(O)CCCCCN`, the inhibition in data set [1], in data set [2] and in [3] was less than 5% each time.

On to `CCc1cccc2c3c([nH]c12)C(CC)(CC(=O)O)OCC3` (centres undefined), for which the inhibition was less than 5% in data set [1], less than 5% in data set [2] and 9% in [3].

In the case of `Cc1c(OCC(F)(F)F)ccnc1C[S+]([O-])c1nc2ccccc2[nH]1` (centres undefined), the inhibition in [1], in data set [2] and in data set [3] was less than 5% throughout.

For the compound `CNCCCC1c2ccccc2C=Cc2ccccc21`, the inhibition in data set [1], in data set [2] and in [3] was less than 5% throughout.

Turning to `Cc1cccc(Nc2ccncc2S(=O)(=O)NC(=O)NC(C)C)c1`, the results for the inhibition in [1], in data set [2] and in data set [3] were less than 5%, less than 5% and 14%, respectively.

Regarding `COc1ccc2[nH]c([S+]([O-])Cc3ncc(C)c(OC)c3C)nc2c1` (centres undefined), the inhibition in [1], in [2] and in data set [3] was less than 5% throughout.

Take `O=C(O)CCCc1ccc(N(CCCl)CCCl)cc1`: the inhibition in data set [1] is less than 5%; in data set [2], 23%; in data set [3] it was 44%.

For `Nc1cc(-c2ccncc2)c[nH]c1=O`, the inhibition in data set [1], in [2] and in data set [5] was less than 5% in each case.

Turning to `Nc1ccc(/N=N/c2ccccc2)c(N)n1`, the inhibition in data set [1] was less than 5%; in data set [2], 96%; in [3] it was 34%.

For the compound `O=C1CN(/N=C/c2ccc([N+](=O)[O-])o2)C(=O)N1`, the inhibition in [1] was less than 5%; in data set [2] it was 91%; in data set [3], 97%.

`Nc1ccc(O)c(C(=O)O)c1`: the results for the inhibition in data set [4], in data set [1] and in [2] were 18%, less than 5% and less than 5%, respectively.

Turning to `Cc1oncc1C(=O)Nc1ccc(C(F)(F)F)cc1`, the inhibition in data set [1] is less than 5%; in [2] it was less than 5%; in data set [3], 12%.

On to `N=C(N)N/N=C/c1c(Cl)cccc1Cl`, for which the inhibition in [1] is 83%; in data set [2], less than 5%; in data set [3], 20%.

As to `COc1cc(Cc2cnc(N)nc2N)cc(OC)c1OC`, the inhibition in [1], in data set [2] and in data set [3] was less than 5% in each case.

Regarding `O=C1C(CC[S+]([O-])c2ccccc2)C(=O)N(c2ccccc2)N1c1ccccc1` (centres undefined), the inhibition is less than 5% in data set [1], 27% in data set [2] and 83% in data set [3].

One may read the IC50 as the concentration that inhibits the measured activity by half. High values mean weaker potency in that assay, low ones greater potency in that assay. With `Clc1ccccc1C(c1ccccc1)(c1ccccc1)n1ccnc1` [CLOTRIMAZOLE], the IC50 is 20 µM against Beta-lactamase, “Increase” against Chymotrypsinogen A [6] and 85 µM at Chymotrypsinogen A [7].

For orientation: Cmax means the highest concentration seen after dosing. Turning to `COc1ccc(Cl)cc1C(=O)NCCc1ccc(S(=O)(=O)NC(=O)NC2CCCCC2)cc1` [GLYBURIDE], the Cmax in [8] was determined as 215 nM. Besides, the IC50 came to 300 µM against Beta-lactamase and 360 µM against Chymotrypsinogen A [7].

As to `NS(=O)(=O)c1cc(C(=O)O)c(NCc2ccco2)cc1Cl`, the inhibition in data set [1] was less than 5%; in data set [2], less than 5%; in [3] it was 21%.

In the case of `CCCC(C)(COC(N)=O)COC(=O)NC(C)C` (centres undefined), the inhibition in data set [1], in data set [2] and in data set [3] was less than 5% in each case.

For the compound `CCn1nc(C(=O)O)c(=O)c2cc3c(cc21)OCO3`, the inhibition in [1], in data set [2] and in [5] was less than 5% in each case.

As to `Cc1cc2nc3c(=O)[nH]c(=O)nc-3n(C[C@H](O)[C@H](O)[C@H](O)CO)c2cc1C`, the inhibition in data set [1], in data set [2] and in data set [9] was less than 5% in each case.

In the case of `Nc1nnc(-c2cccc(Cl)c2Cl)c(N)n1`, the inhibition in [1] is less than 5%; in [2], less than 5%; in data set [3], 11%.

As for `O=C1CCC(N2C(=O)c3ccccc3C2=O)C(=O)N1` (centres undefined), the inhibition in data set [1], in [2] and in data set [3] was less than 5% each time.

`CC(C)Nc1cccnc1N1CCN(C(=O)c2cc3cc(NS(C)(=O)=O)ccc3[nH]2)CC1` [DELAVIRDINE]: the IC50 against Beta-lactamase is 90 µM; on Chymotrypsinogen A [7] it was 225 µM.

Regarding `Nc1c2c(nc3ccccc13)CCCC2`, the inhibition in data set [1] was less than 5%; in data set [2], less than 5%; in data set [3], 83%.

For `O=C(O)c1cc(-c2ccc(F)cc2F)ccc1O`, the inhibition in data set [1] was less than 5%; in [2] it was 13%; in data set [3], less than 5%.

`Nc1ccc(S(=O)(=O)c2ccc(N)cc2)cc1`: the results for the inhibition in data set [1], in data set [2] and in [3] were less than 5%, less than 5% and 11%, respectively.

As to `Nc1nc2ccc(OC(F)(F)F)cc2s1`, the inhibition in data set [4], in data set [1] and in data set [2] was less than 5% in each case.

In the case of `Cc1nccn1CC1CCc2c(c3ccccc3n2C)C1=O` (centres undefined), the inhibition in data set [1], in data set [2] and in [3] was less than 5% in each case.

Take `NC(=O)N1c2ccccc2C=Cc2ccccc21`: the figures for the inhibition in data set [1], in [2] and in data set [3] were less than 5%, less than 5% and 8%, respectively.

`Clc1ccc(CSC(Cn2ccnc2)c2ccc(Cl)cc2Cl)cc1` (centres undefined) [SULCONAZOLE] came in with a concentration for half-maximal inhibition (IC50) against Chymotrypsinogen A [7] of 110 µM.

Consider `Clc1ccc(COC(Cn2ccnc2)c2ccc(Cl)cc2Cl)cc1` (centres undefined) [ECONAZOLE], for which the 50% inhibitory concentration (IC50) against Beta-lactamase is 25 µM; against Chymotrypsinogen A [7], 150 µM.

Consider `CCC1(c2ccccc2)C(=O)NCNC1=O`, for which the inhibition in data set [1] is less than 5%; in data set [2], less than 5%; in [3], 13%.

`NS(=O)(=O)c1cc(C2(O)NC(=O)c3ccccc32)ccc1Cl` (centres undefined): the inhibition in data set [4], in data set [1] and in data set [2] was less than 5% throughout.

As for `CN(C)CCN(Cc1ccccc1)c1ccccn1`, the inhibition in data set [1], in [2] and in data set [3] was less than 5% in each case.

On to `CN(C)CCOC(c1ccccc1)c1ccccc1`, for which the inhibition in data set [1], in [2] and in [3] was less than 5% each time.

Consider `Nc1ccc(S(=O)(=O)Nc2ncccn2)cc1`, for which the inhibition in data set [4], in data set [1] and in data set [2] was less than 5% each time.

In the case of `O=C(O)CCCCCCCC(=O)O`, the inhibition in [1] was less than 5%; in [2], less than 5%; in data set [3] it was 8%.

In the case of `COC(=O)Nc1nc2cc(C(=O)c3ccccc3)ccc2[nH]1`, the inhibition in data set [1] is less than 5%; in [2], less than 5%; in [3], 15%.

On to `CC(C)C(=O)Nc1ccc([N+](=O)[O-])c(C(F)(F)F)c1`, for which the inhibition in data set [1], in data set [2] and in [9] was less than 5% in each case.

On to `Clc1ccc(COC(Cn2ccnc2)c2ccc(Cl)cc2Cl)c(Cl)c1` (centres undefined) [MICONAZOLE], for which the values for the half-inhibitory concentration (IC50) against Beta-lactamase and against Chymotrypsinogen A [7] were 40 µM and 125 µM, respectively.

Consider `COc1cc2nc(N3CCN(C(=O)c4ccco4)CC3)nc(N)c2cc1OC`, for which the figures for the inhibition in data set [1], in [2] and in [9] were 13%, less than 5% and 14%, respectively.

Regarding `Nc1nc(N)c2nc(-c3ccccc3)c(N)nc2n1`, the inhibition in data set [1] is less than 5%; in data set [2], less than 5%; in [5] it was 21%.

On to `CCN(CC)CC(=O)Nc1c(C)cccc1C`, for which the inhibition in data set [1], in data set [2] and in [3] was less than 5% each time.

With `COc1ccc2c(c1)c(CC(=O)O)c(C)n2C(=O)c1ccc(Cl)cc1`, the inhibition in data set [1] was less than 5%; in [2], less than 5%; in data set [3] it was 7%.
